Source: ChEMBL document CHEMBL4346757, “Synthesis and biological evaluation of 7-methoxy-1-(3,4,5-trimethoxyphenyl)-4,5-dihydro-2H-benzo[e]indazoles as new colchicine site inhibitors” (Bioorg Med Chem Lett, 2019)

Columns and labels:
Assay type in all cases: functional
CAKI-1 = test: Growth inhibition of human Caki1 cells assessed as cell growth at 0.1 uM after 48 hrs by SRB assay relative to control; details: CAKI-1, 48 h, read-out: Activity
NCI-H322M = test: Growth inhibition of human NCI-H322M cells assessed as cell growth at 0.01 uM after 48 hrs by SRB assay relative to control; details: read-out: Activity
K562 = test: Growth inhibition of human K562 cells assessed as cell growth at 0.1 uM after 48 hrs by SRB assay relative to control; details: K562, 48 h, read-out: Activity
LOX IMVI = test: Growth inhibition of human LOXIMVI cells assessed as cell growth at 0.01 uM after 48 hrs by SRB assay relative to control; details: read-out: Activity
MOLT-4 [1] = test: Cytotoxicity against human MOLT4 cells assessed as growth inhibition after 48 hrs by SRB assay; details: MOLT-4, 48 h
COLO 205 [2] = test: Growth inhibition of human COLO205 cells assessed as cell growth at 0.01 uM after 48 hrs by SRB assay relative to control; details: COLO 205, 48 h, read-out: Activity
RPMI-8226 = test: Growth inhibition of human RPMI8226 cells assessed as cell growth at 1 uM after 48 hrs by SRB assay relative to control; details: RPMI-8226, 48 h, read-out: Activity
Hs-578T = test: Growth inhibition of human Hs 578T cells assessed as cell growth at 0.1 uM after 48 hrs by SRB assay relative to control; details: read-out: Activity
MDA-MB-468 = test: Growth inhibition of human MDA-MB-468 cells assessed as cell growth at 1 uM after 48 hrs by SRB assay relative to control; details: MDA-MB-468, 48 h, read-out: Activity
SN12C = test: Growth inhibition of human SN12C cells assessed as cell growth at 1 uM after 48 hrs by SRB assay relative to control; details: read-out: Activity
PC-3 = test: Growth inhibition of human PC3 cells assessed as cell growth at 1 uM after 48 hrs by SRB assay relative to control; details: PC-3, 48 h, read-out: Activity
SW-620 = test: Growth inhibition of human SW620 cells assessed as cell growth at 0.1 uM after 48 hrs by SRB assay relative to control; details: SW-620, 48 h, read-out: Activity
NCI-H23 = test: Growth inhibition of human NCI-H23 cells assessed as cell growth at 100 uM after 48 hrs by SRB assay relative to control; details: NCI-H23, 48 h, read-out: Activity
HCT-15 = test: Growth inhibition of human HCT15 cells assessed as cell growth at 0.01 uM after 48 hrs by SRB assay relative to control; details: HCT-15, 48 h, read-out: Activity
MOLT-4 [3] = test: Growth inhibition of human MOLT4 cells assessed as cell growth at 0.1 uM after 48 hrs by SRB assay relative to control; details: MOLT-4, 48 h, read-out: Activity
A549 = test: Cytotoxicity against human A549/ATCC cells assessed as growth inhibition after 48 hrs by SRB assay; details: A549, 48 h
HCT-116 = test: Cytotoxicity against human HCT116 cells assessed as growth inhibition after 48 hrs by SRB assay; details: HCT-116, 48 h
SNB-19 = test: Growth inhibition of human SNB19 cells assessed as cell growth at 0.01 uM after 48 hrs by SRB assay relative to control; details: SNB-19, 48 h, read-out: Activity
T47D = test: Growth inhibition of human T47D cells assessed as cell growth at 0.01 uM after 48 hrs by SRB assay relative to control; details: read-out: Activity
SF-539 = test: Cytotoxicity against human SF539 cells assessed as growth inhibition after 48 hrs by SRB assay; details: SF-539, 48 h
DU-145 = test: Growth inhibition of human DU145 cells assessed as cell growth at 1 uM after 48 hrs by SRB assay relative to control; details: DU-145, 48 h, read-out: Activity
RXF 393 = test: Cytotoxicity against human RXF393 cells assessed as growth inhibition after 48 hrs by SRB assay; details: RXF 393, 48 h
SF-295 = test: Growth inhibition of human SF295 cells assessed as cell growth at 0.01 uM after 48 hrs by SRB assay relative to control; details: SF-295, 48 h, read-out: Activity
SF-268 [4] = test: Growth inhibition of human SF268 cells assessed as cell growth at 1 uM after 48 hrs by SRB assay relative to control; details: SF-268, 48 h, read-out: Activity
OVCAR-5 [5] = test: Growth inhibition of human OVCAR5 cells assessed as cell growth at 1 uM after 48 hrs by SRB assay relative to control; details: OVCAR-5, 48 h, read-out: Activity
UACC-62 = test: Growth inhibition of human UACC62 cells assessed as cell growth at 1 uM after 48 hrs by SRB assay relative to control; details: UACC-62, 48 h, read-out: Activity
SNB-75 [6] = test: Growth inhibition of human SNB75 cells assessed as cell growth at 100 uM after 48 hrs by SRB assay relative to control; details: SNB-75, 48 h, read-out: Activity
OVCAR-5 [7] = test: Cytotoxicity against human OVCAR5 cells assessed as growth inhibition after 48 hrs by SRB assay; details: OVCAR-5, 48 h
SNB-75 [8] = test: Growth inhibition of human SNB75 cells assessed as cell growth at 10 uM after 48 hrs by SRB assay relative to control; details: SNB-75, 48 h, read-out: Activity
SF-268 [9] = test: Growth inhibition of human SF268 cells assessed as cell growth at 0.01 uM after 48 hrs by SRB assay relative to control; details: SF-268, 48 h, read-out: Activity
COLO 205 [10] = test: Growth inhibition of human COLO205 cells assessed as cell growth at 0.1 uM after 48 hrs by SRB assay relative to control; details: COLO 205, 48 h, read-out: Activity
[11] = read-out: LC50 (the source's name)
[12] = read-out: pLC50 (the source's name) (converted)

Compound `COc1ccc2c(c1)CCc1n[nH]c(-c3cc(OC)c(OC)c(OC)c3)c1-2` has a growth at 0.1 µM (CAKI-1) of 23%, a growth at 0.01 µM (NCI-H322M) of 47% and a growth at 0.1 µM (K562) of 19%. For the same compound, the growth at 0.01 µM (LOX IMVI) was 21%, the GI50 (MOLT-4 [1]; read-out: GI50) was < 0.01 µM and the CC50 (MOLT-4 [1]; [11]) was > 100 µM. For the same compound, the TGI (MOLT-4 [1]; read-out: TGI) was > 100 µM, the GI50 (MOLT-4 [1]; read-out: pGI50 (converted)) was < 0.01 µM and the CC50 (MOLT-4 [1]; [12]) was > 100 µM. For the same compound, the TGI (MOLT-4 [1]; read-out: pTGI) was > 100 µM, the growth at 0.01 µM (COLO 205 [2]) was -23% and the growth at 1 µM (RPMI-8226) was 52%. The growth at 0.1 µM (Hs-578T) was 17%, the growth at 1 µM (MDA-MB-468) was -1% and the growth at 1 µM (SN12C) was 36%. It also gave a growth at 1 µM (PC-3) of 18%, a growth at 0.1 µM (SW-620) of 18% and a growth at 100 µM (NCI-H23) of -42%. The growth at 0.01 µM (HCT-15) was 6%, the growth at 0.1 µM (MOLT-4 [3]) was 35% and the GI50 (A549; read-out: GI50) was < 0.01 µM. The CC50 (A549; [11]) was > 100 µM, the TGI (A549; read-out: TGI) was 19.5 µM and the GI50 (A549; read-out: pGI50 (converted)) was < 0.01 µM. For the same compound, the CC50 (A549; [12]) was > 100 µM, the TGI (A549; read-out: pTGI (converted)) was 19.5 µM and the GI50 (HCT-116; read-out: GI50) was < 0.01 µM. The CC50 (HCT-116; [11]) was 48.9 µM, the TGI (HCT-116; read-out: TGI) was 1.16 µM and the GI50 (HCT-116; read-out: pGI50 (converted)) was < 0.01 µM. The CC50 (HCT-116; [12]) was 49 µM, the TGI (HCT-116; read-out: pTGI (converted)) was 1.15 µM and the growth at 0.01 µM (SNB-19) was 33%. For the same compound, the growth at 0.01 µM (T47D) was 59%, the GI50 (SF-539; read-out: GI50) was < 0.01 µM and the CC50 (SF-539; [11]) was 29.9 µM. For the same compound, the TGI (SF-539; read-out: TGI) was < 0.01 µM, the GI50 (SF-539; read-out: pGI50 (converted)) was < 0.01 µM and the CC50 (SF-539; [12]) was 30.2 µM. The TGI (SF-539; read-out: pTGI) was < 0.01 µM, the growth at 1 µM (DU-145) was 12% and the GI50 (RXF 393; read-out: GI50) was < 0.01 µM. For the same compound, the CC50 (RXF 393; [11]) was 51.3 µM, the GI50 (RXF 393; read-out: pGI50 (converted)) was < 0.01 µM and the CC50 (RXF 393; [12]) was 51.3 µM. The growth at 0.01 µM (SF-295) was 3%, the growth at 1 µM (SF-268 [4]) was 29% and the growth at 1 µM (OVCAR-5 [5]) was 43%. The growth at 1 µM (UACC-62) was 36%, the growth at 100 µM (SNB-75 [6]) was -30% and the GI50 (OVCAR-5 [7]; read-out: GI50) was 0.242 µM. The LC50 (OVCAR-5 [7]; read-out: LC50) was > 100 µM, the TGI (OVCAR-5 [7]; read-out: TGI) was 38.8 µM and the GI50 (OVCAR-5 [7]; read-out: pGI50 (converted)) was 0.24 µM. The LC50 (OVCAR-5 [7]; read-out: pLC50 (converted)) was > 100 µM, the TGI (OVCAR-5 [7]; read-out: pTGI (converted)) was 38.9 µM and the growth at 10 µM (SNB-75 [8]) was 22%. The growth at 0.01 µM (SF-268 [9]) was 39% and the growth at 0.1 µM (COLO 205 [10]) was -46%.
